Source: patent US11565264B2, “Expandable arrays and methods of use” (Rutgers, The State University of New Jersey, priority 2018, dated 2023)

Experiments:
GBM PDOs = assay: 72-hour drug treatment of GBM patient derived organoids (PDOs) in basket arrays; assay type: cell-based; details: 72-hour treatment
Protocol: The basket arrays were used to deploy rapid single cell derived sphere and organoid assays to assess tumor cell viability, tumor invasion, terminal differentiation and resistance to therapy for cancer drug discovery and drug validation. […] PDOs were treated for 72-hours with standard chemotherapy (TMZ) and/or molecularly targeted agents, targeting mTOR, PI3K, BMI1, EGFR, and DDR, among others. Following treatments, the entire 4D printed basket arrays were evolved, with a 10-min heating step at 50° C., to their programmable cassette size to directly perform histological and IHC validation on the same day, and with the convenience of maintaining the same tissue plate arrangement. The concentrations inhibiting viability by 50% (GI50), real time activated caspase 3 for detection of apoptotic cells and GBM tumor cell invasion in live intact organoid cells were less impacted by standard TMZ than targeted therapies.

U87 spheres = details: read-out: EC50 (median dose); GBM cell viability
Source text: FIG. 15A illustrates the results of the cell titer glo assay that utilizes ATP levels and was used to determine GBM viability in the presence of component biomaterials. FIGS. 15B and 15C are low-power images of bright fields of spheres cultured for one week in the presence of the indicated chemicals and concentrations. The insets are higher power (20×) magnification of the 5× images.

[1] = live intact organoid cells, TMZ compared with targeted therapies

EC50 (U87 spheres)	Molecule	EGFR expression in organoid cells (GBM PDOs)	GBM tumor cell invasion (GBM PDOs; [1])	concentrations inhibiting viability by 50% (GI50) (GBM PDOs; [1])	real time activated caspase 3 for detection of apoptotic cells (GBM PDOs; [1])
	Cn1nnc2c(C(N)=O)ncn2c1=O [TMZ]	not affected	less impacted	less impacted	less impacted
7.2 µM	poly (Ethylene glycol) diacrylate 250 [PEGDA250]				
